Test results as given in patent publication EP1056778B1, “G PROTEIN-COUPLED RECEPTOR ANTAGONISTS” (priority 1998, dated 1999).
Where a SMILES comes first, the peptide text is derived from it.

Target: T1, CCKAR (Rattus norvegicus, UniProt P30551)
T1 construct: expressed in transfected cells; host or cells: CHO cells
T1 sequence (P30551 1-444): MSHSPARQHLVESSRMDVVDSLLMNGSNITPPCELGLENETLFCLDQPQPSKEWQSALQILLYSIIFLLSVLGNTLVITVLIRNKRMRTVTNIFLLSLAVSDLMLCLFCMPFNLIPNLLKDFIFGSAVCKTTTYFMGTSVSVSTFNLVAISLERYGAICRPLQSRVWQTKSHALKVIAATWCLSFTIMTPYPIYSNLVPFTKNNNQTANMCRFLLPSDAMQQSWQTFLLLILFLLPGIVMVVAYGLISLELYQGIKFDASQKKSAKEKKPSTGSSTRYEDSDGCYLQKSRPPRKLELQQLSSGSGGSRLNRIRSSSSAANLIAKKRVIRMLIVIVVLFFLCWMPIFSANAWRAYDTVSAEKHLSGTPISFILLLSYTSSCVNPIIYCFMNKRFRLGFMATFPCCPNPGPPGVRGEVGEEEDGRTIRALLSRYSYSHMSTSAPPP
Experiment: Inhibition of CCK-8 evoked intracellular calcium release in CHO cells stably transfected with rat CCKAR
Format: cell-based
Experimental: The activity of peptides from the CCKAR transmembrane domain were tested in transfected CHO cells that stably express rat […] et al. (1997), J. Biol. Chem. 272: 14817-14824). Sulfated cholecystokinin octapeptide was the CCKAR agonist. Determination of intracellular calcium release was performed as described in example 1 above. None of CCKAR-derived peptides served as antagonists of chemokine receptors and none could inhibit HIV-1 infection. The activity of the antagonists in inhibiting signaling through the receptor was compared to the ability to prevent agonist binding (Table 4). Inhibition of signaling was assessed in CCK-8 evoked intracellular calcium release in FURA-2/AM treated CHO cells stably transfected with rat […], et al. (1997) J. Biol. Chem. 272:14817). Inhibition of ligand binding was measured with the use of a fluorescent agonist, rhodamine green CCK-8 (RG-CCK-8) and quantitative confocal laser scanning microscopy (Tarasova, et al. (1997) J. Biol. Chem. 272:14817). Peptides derived from the first, second, and sixth transmembrane domains inhibited CCK-induced signaling through the CCKAR receptor. […] Table 4. The activity of CCKAR-derived TM peptides in inhibition of CCK-8 -induced intracellular calcium release and RG-CCK-8 binding.

## CSCC[C@H](NC(=O)[C@H](CC(C)C)NC(=O)[C@H](CC(=O)O)NC(=O)[C@H](CO)NC(=O)[C@@H](NC(=O)[C@H](C)NC(=O)[C@H](CC(C)C)NC(=O)[C@H](CO)NC(=O)[C@H](CC(C)C)NC(=O)[C@H](CC(C)C)NC(=O)[C@@H](N)Cc1ccccc1)C(C)C)C(=O)N[C@@H](CC(C)C)C(=O)N[C@@H](CS)C(=O)N[C@@H](CC(C)C)C(=O)N[C@@H](Cc1ccccc1)C(=O)N[C@@H](CS)C(=O)N[C@@H](CCSC)C(=O)N1CCC[C@H]1C(=O)N[C@@H](Cc1ccccc1)C(=O)N[C@@H](CC(N)=O)C(=O)N[C@@H](CC(C)C)C(=O)N1CCC[C@H]1C(=O)O [CCKAR-2-1] (H-FLLSLAVSDLMLCLFCMPFNLP-OH)
CCK-8-induced intracellular calcium release, CHO cells with rat CCKAR
  Concentration, required for inhibition of signaling: 2 µM
Comparison of signaling and binding, Table 4
  potency in inhibition of ligand signaling compared with binding: comparable potencies
